Biological target: T1, human D3 receptor (Homo sapiens, UniProt P35462)
T1 construct: host or cells: Sf9 cells; final budded baculovirus production in Mimic Sf9 insect cells
Experiment: Fluorescence anisotropy competition binding with CELT-419 and D3 receptor budded baculoviruses
Conditions: FA competition with 0.5 nM CELT-419
Experimental: The competitive ligand dilutions were done on the measurement plate. Also, a point with no competitive ligand was included and for blank correction, a point with only BBV was included. Measurements were carried out with 5 min intervals for 5 h at 27 °C. In all cases, BBV was added as the last component to initiate the ligand binding process.
To fit the Log(IC50) change in time from the competition binding experiments, a single-phase exponential decay equation with a constant corresponding to the equilibrium state was used.

T1 sequence (P35462 whole entry): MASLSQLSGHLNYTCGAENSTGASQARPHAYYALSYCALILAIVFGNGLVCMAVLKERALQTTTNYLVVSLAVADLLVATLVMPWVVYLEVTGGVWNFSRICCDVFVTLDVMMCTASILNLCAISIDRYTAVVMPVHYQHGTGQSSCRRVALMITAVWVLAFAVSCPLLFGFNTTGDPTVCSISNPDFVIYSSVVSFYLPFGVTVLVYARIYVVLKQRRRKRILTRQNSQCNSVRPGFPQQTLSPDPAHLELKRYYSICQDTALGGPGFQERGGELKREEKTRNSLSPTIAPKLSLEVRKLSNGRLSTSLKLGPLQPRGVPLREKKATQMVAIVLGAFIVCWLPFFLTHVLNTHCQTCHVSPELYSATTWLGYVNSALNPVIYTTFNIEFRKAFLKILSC

- Log(IC50) values change in time: increased in time
SMILES: CN1CCc2cccc3c2[C@H]1Cc1ccc(O)c(O)c1-3 [Apomorphine]
